≈ marks a conversion by molar mass, not a printed value. Like-named read-outs stand apart in the source and are kept apart here. Blank lines part the entries; values can stand above or below the compound they belong to.
What was measured:
[1] = Urine metabolites after oral Gegen water extract, quantified by UPLC-MS/MS; type: in vivo, spontaneously hypertensive rats (SHRs); conditions: spontaneously hypertensive rat (SHR), 3-week treatment, Mean ± SEM; for concentration at 2 h: 2 h after last dose of Gegen water extract 300 mg/kg p.o., n = 8, read-out: Content in urine, 2 h; for concentration at 4 h: 4 h after last dose of Gegen water extract 300 mg/kg p.o., n = 8, read-out: Content in urine, 4 h; for concentration at 6 h: 6 h after last dose of Gegen water extract 300 mg/kg p.o., n = 8, read-out: Content in urine, 6 h; for concentration at 8 h: 8 h after last dose of Gegen water extract 300 mg/kg p.o., n = 8, read-out: Content in urine, 8 h
Description: Urine samples were collected into ice-cold 15-ml Falcon tubes every 2 h and up to a total of 8 h, and the tubes were cooled by ice to prevent bacteria proliferation and water evaporation during collection. […] The gradient profile was set as follows: 10-40% B from 0 to 11 min; and 40-80% B from 11 to 15 min. The parameters for mass spectrometry were as follows: capillary, 2.5 kV for negative mode; sampling cone, 34 V; source offset, 80 V; cone gas flow, 150 L/h; desolvation gas flow, 650 L/h; and desolvation temperature, 350°C. Samples were kept at 4°C in the sample manager, and the column was maintained at 40°C. […] The precision and accuracy of the quantitation were satisfied according to FDA Bioanalytical Method Validation Guidance for Industry. Total ion chromatograms including retention times and MRM masses are shown in Supplementary Figure S2.

[2] = target: T1, M3 receptor (carbachol-induced detrusor contraction) (Rattus norvegicus, UniProt P08483); test: Carbachol-induced bladder strip (detrusor) contraction, ex vivo organ bath; type: cell-based, spontaneously hypertensive rats (SHRs); conditions: for IC50 / IC10 value: carbachol (10 μM)-induced detrusor contraction, Mean ± SEM, n = 3; for remaining activity at 100 µg/mL: 100 μg/ml; for inhibition at 100 µg/mL: read-out: inhibition rate at 100 μg/ml
T1 construct: the whole bladder was immediately isolated to prepare detrusor strips in Krebs’ solution; from tissue; host or cells: bladder detrusor strips / bladder sections of SHR
T1 sequence (P08483 whole entry): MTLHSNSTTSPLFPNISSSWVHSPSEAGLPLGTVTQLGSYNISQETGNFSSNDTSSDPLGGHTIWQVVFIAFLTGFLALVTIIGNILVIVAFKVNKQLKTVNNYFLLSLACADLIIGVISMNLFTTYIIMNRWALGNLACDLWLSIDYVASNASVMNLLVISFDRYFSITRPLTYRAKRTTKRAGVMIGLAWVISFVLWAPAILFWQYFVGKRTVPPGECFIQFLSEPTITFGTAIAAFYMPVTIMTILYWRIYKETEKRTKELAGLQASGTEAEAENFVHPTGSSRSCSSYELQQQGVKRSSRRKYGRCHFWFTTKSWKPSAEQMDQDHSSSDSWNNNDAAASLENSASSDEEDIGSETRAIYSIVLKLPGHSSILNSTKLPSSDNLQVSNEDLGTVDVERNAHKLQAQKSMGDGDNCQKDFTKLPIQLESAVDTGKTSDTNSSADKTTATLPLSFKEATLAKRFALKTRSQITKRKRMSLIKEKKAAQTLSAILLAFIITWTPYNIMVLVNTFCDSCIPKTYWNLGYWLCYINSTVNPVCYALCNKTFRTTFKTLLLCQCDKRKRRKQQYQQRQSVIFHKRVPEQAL
Description: SHRs were sacrificed with carbon dioxide, and the whole bladder was immediately isolated to prepare detrusor strips in Krebs’ solution. Then, the strips were placed in a PanLab organ bath (Harvard Apparatus, Holliston, Massachusetts, United States) full of bubbling Krebs’ solution at 37°C. After stimulation with high-potassium solution, the strips were washed with Krebs’ solution three times. When the strips were incubated in Krebs’ solution until the tension was set at about 1.5 g, 0.1% DMSO was added for a 10-min incubation as a control, and then the muscle strip was stimulated to shrink by adding muscarinic agonist carbachol (10 μM), which is used for determinization of M3 receptor function in the bladder strip ([Liang and Leung, 2012]). Between two stimulations, the strips were washed out and balanced for 15 min. The contraction force of the bladder strip was recorded. After the experiment, detrusor strips were collected, dried, and weighed for data normalization. Data were recorded and analyzed using LabChart software (version 8.0).
Detrusor strips were isolated from SHRs and placed in the organ bath as mentioned previously, and then inhibitory activities of different fractions at 100 μg/ml were tested under carbachol (10 μM)-stimulated detrusor contraction.

[3] = cited from earlier work
BSA = BSA (Bos taurus, UniProt P02769); test: Thermal shift control in PBS containing BSA and glycerin; type: binding; conditions: 100 μg/ml; no M3 receptor protein; read-out: ΔTm in PBS solution containing BSA and glycerin
Sequence of BSA (P02769 25-607): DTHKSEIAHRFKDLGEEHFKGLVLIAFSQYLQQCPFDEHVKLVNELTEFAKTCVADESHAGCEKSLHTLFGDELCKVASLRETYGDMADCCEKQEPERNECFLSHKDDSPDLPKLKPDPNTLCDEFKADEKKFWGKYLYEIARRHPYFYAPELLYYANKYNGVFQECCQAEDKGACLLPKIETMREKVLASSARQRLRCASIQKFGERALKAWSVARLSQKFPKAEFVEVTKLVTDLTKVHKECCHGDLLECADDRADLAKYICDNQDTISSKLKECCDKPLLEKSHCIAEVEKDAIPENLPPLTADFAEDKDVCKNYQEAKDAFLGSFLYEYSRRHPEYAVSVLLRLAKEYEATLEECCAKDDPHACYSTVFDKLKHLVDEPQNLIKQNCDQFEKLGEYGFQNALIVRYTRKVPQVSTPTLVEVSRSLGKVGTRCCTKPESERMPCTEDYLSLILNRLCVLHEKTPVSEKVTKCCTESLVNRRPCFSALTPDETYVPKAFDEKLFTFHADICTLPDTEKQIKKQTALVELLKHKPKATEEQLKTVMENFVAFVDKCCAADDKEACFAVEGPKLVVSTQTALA

[4] = target: T1, M3 receptor (carbachol-induced detrusor contraction); test: Carbachol-induced bladder strip (detrusor) contraction, ex vivo organ bath; type: cell-based, spontaneously hypertensive rats (SHRs); conditions: read-out: inhibition at 12.5 μg/ml
[5] = target: T2, recombinant human M3 receptor (Homo sapiens, UniProt P20309); test: Thermal shift assay with recombinant human M3 receptor protein; type: binding; conditions: for binding to the human M3 receptor protein (verdict in words): thermal shift; for Tm value of the human M3 receptor protein: compound at 100 μg/ml, control (1% DMSO) 64.17 ± 0.37°C, n = 3
T2 construct: Full-length recombinant human M3 muscarinic acetylcholine receptor membrane preparation was provided by Millipore Co; purchased Millipore Co. (Merck KGaA, Darmstadt, Germany)
T2 sequence (P20309 whole entry): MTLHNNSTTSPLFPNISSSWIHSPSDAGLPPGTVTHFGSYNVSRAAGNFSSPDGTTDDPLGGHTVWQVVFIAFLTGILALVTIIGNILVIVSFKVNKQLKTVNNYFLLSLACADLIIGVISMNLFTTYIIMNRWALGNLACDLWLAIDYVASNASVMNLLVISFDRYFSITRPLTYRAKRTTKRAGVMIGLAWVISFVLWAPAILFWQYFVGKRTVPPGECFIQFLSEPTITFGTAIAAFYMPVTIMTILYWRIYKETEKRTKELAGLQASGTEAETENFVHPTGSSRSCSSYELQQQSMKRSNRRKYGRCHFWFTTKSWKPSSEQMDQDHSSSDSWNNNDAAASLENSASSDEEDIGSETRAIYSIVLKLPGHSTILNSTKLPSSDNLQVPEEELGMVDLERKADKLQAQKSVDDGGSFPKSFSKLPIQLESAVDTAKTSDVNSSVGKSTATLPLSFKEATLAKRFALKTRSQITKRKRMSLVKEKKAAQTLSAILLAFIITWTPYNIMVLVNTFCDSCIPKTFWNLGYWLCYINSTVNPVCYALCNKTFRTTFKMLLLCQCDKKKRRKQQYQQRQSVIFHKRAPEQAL
Description: A thermal shift assay was performed to measure the binding of ligands to a recombinant human M3 receptor as modified from the previous study ([Huynh and Partch, 2015]). Briefly, after optimization of protein and dye concentrations, the M3 receptor protein (0.025 mg/ml) was incubated with different concentrations of tested compounds (0–100 μg/ml in 1% DMSO) in an 18 μl volume of ice-cold PBS for 2 h. Then, SYPRO Orange protein stain (2 μl; 8x as the final concentration diluted from original 5000x with PBS) was added, and the melt curve was detected using the Applied Biosystems QuantStudio5 real-time PCR system under the following conditions: ramp speed, standard; excitation wavelength at 470 nm (Reporter: FAM), and emission wavelength at 586 nm (Quencher: TAMRA) with no passive reference; an initial 2-min hold at 25°C (ramp rate, 1.6°C/s), ramping up in increments of 0.05°C/s to a final temperature of 99°C. Melt temperatures (Tm) were calculated using Protein Thermal Shift software v.1.4 (Applied Biosystems, Thermo, United States). The change in melt temperature (ΔTm) was equal to the Tm of control (1% DMSO) subtracted from the Tm of the tested compound. ΔTm higher than 2°C was considered a positive interaction between the ligand and receptor protein ([Huynh and Partch, 2015]).

[6] = pure compounds at 100 μg/ml, carbachol 10 μM

Structure (SMILES): O=c1c(-c2ccc(O)cc2)coc2cc(O)cc(O)c12 [Genistein, Genistein (5-hydroxyl daidzein)]
concentration at 2 h ([1]; in vivo): 517 ± 138 ng/mL
concentration at 4 h ([1]; in vivo): 1410 ± 1000 ng/mL
concentration at 6 h ([1]; in vivo): 327 ± 98 ng/mL
concentration at 8 h ([1]; in vivo): 342 ± 35 ng/mL

IC50 [2]: > 231 µM
Structure (SMILES): O=c1c(-c2ccc(O)cc2)coc2cc(O[C@@H]3O[C@H](CO)[C@@H](O)[C@H](O)[C@H]3O)cc(O)c12 [Genistin, genistin (genistein-7-O-glucoside)]

Structure (SMILES): O=c1c(-c2ccc(O)cc2)coc2cc(O)ccc12 [Daidzein, daidzein]
plasma AUC ([3]; rat, in vivo, po): 4·4 μg·h/mL
ΔTm at 100 µg/mL (BSA): ~0.58 °C
inhibition at 12.5 µg/mL [4]: 15%
concentration at 2 h ([1]; urine, oral): 4400 ± 1000 ng/mL
concentration at 4 h ([1]; urine, oral): 15900 ± 9300 ng/mL
concentration at 6 h ([1]; urine, oral): 8130 ± 2660 ng/mL
concentration at 8 h ([1]; urine, oral): 14400 ± 5140 ng/mL
ΔTm at 100 µg/mL ([5]; 100 μg/ml, against 1% DMSO, ΔTm higher than 2°C = positive interaction): 2.12 °C
binding to the human M3 receptor protein (verdict in words) ([5]; 100 μg/ml): positively bound
EC50 ([5]; 3.125–100 μg/ml, at 65.3°C, read-out: EC50 of concentration-dependent increase of Tm (converted)): 62.1 µM
Tm value of the human M3 receptor protein [5]: 66.29 ± 0.38 °C
IC10 value [2]: 8.15 ± 1.85 µg/mL (≈ 32.1 µM)
IC50 [2]: 158 µM

concentration at 2 h ([1]; urine, oral): 26 ± 7 ng/mL
concentration at 4 h ([1]; urine, oral): 85 ± 57 ng/mL
concentration at 6 h ([1]; urine, oral): 30 ± 14 ng/mL
concentration at 8 h ([1]; urine, oral): 28 ± 5 ng/mL
IC10 value [2]: 34.94 ± 6.75 µg/mL (≈ 123 µM)
IC50 [2]: 201 µM
Structure (SMILES): COc1ccc(-c2coc3cc(O)cc(O)c3c2=O)cc1 [Biochanin A, Biochanin A (genistein 4′-methyl ether)]

remaining activity at 100 µg/mL ([2]; carbachol 10 μM): 82.3 ± 1.8%
inhibition at 100 µg/mL [2, 6]: 17.8 ± 1.75%
Structure (SMILES): O=c1c(-c2ccc(O)c(O)c2)coc2c([C@@H]3O[C@H](CO)[C@@H](O)[C@H](O)[C@H]3O)c(O)ccc12 [3′-Hydroxypuerarin, 3′-hydroxypuerarin]

remaining activity at 100 µg/mL ([2]; carbachol 10 μM): 89.3 ± 9.2%
inhibition at 100 µg/mL [2, 6]: 10.7 ± 9.24%
Structure (SMILES): O=c1c(-c2ccc(O)cc2)coc2c([C@@H]3O[C@H](CO[C@@H]4OC[C@](O)(CO)[C@H]4O)[C@@H](O)[C@H](O)[C@H]3O)c(O)ccc12 [Puerarin apioside, puerarin apioside]

Structure (SMILES): O=c1c(-c2ccc(O)cc2)coc2c([C@@H]3O[C@H](CO)[C@@H](O)[C@H](O)[C@H]3O)c(O)ccc12 [Puerarin, puerarin (daidzein-8-C-glucoside)]
plasma AUC ([3]; after oral administration of Gegen water extract, ref Wei et al., 2020): 15.1 µg·h/mL
concentration at 2 h ([1]; urine, oral): 6380 ± 897 ng/mL
concentration at 4 h ([1]; urine, oral): 10300 ± 2480 ng/mL
concentration at 6 h ([1]; urine, oral): 3310 ± 325 ng/mL
concentration at 8 h ([1]; urine, oral): 2210 ± 164 ng/mL
binding to the human M3 receptor protein (verdict in words) ([5]; 100 μg/ml): very weak binding
Tm value of the human M3 receptor protein [5]: 64.92 ± 0.03 °C
IC10 value [2]: 2.90 ± 2.11 µg/mL (≈ 6.96 µM)
inhibition at 100 µg/mL [2]: 33.8 ± 3.05%

— publication PMC9576955, “Daidzein is the in vivo active compound of Puerariae Lobatae Radix water extract for muscarinic receptor-3 inhibition against overactive bladder” (Frontiers in Pharmacology, 2022)
